# Source: article PMC9090415, “Discovery of small molecule inhibitors of Plasmodium falciparum apicoplast DNA polymerase” (Journal of Enzyme Inhibition and Medicinal Chemistry, 2022)
# Molecular target: P. falciparum apicoplast DNA polymerase (Pf-apPOL) (Plasmodium falciparum, UniProt Q8ILY1)
# Experiment: Fluorescence-based high-throughput DNA polymerase assay (molecular beacon), primary screen and dose-response
# Format: biochemical
# Procedure: The HT assay employs a molecular beacon, a stem-loop DNA template with a Cy3 dye and the Black Hole Quencher on the 3′ and 5′ ends of the DNA, respectively. Pf-apPOL concentration is based on a calculated absorptivity of ε280 = 56750 M^−1 cm^−1. Reactions were carried out at 25 °C, using Corning 3575 […] (well-volume, 20 µL). Assays testing for compound inhibition composed of reaction buffer (pH 7.9 in 50 mM potassium acetate, 20 mM Tris-acetate and 10 mM magnesium acetate), Pf-apPOL (20 nM), DNA substrate (20 nM), dNTPs (6 µM), and compound (10 µM in DMSO). The DNA and nucleotide substrates (dNTPs) were at concentrations of 20 nM and 6 µM, respectively, in the assay. Pf-apPOL was incubated in the reaction buffer with dNTPs and the compound of interest (10 µM, in the assay) at 25 °C for 10 min. The DNA substrate was then added and the reaction was allowed to proceed for 90 min at 25 °C.
# Each assay plate contained 16 negative controls (no Pf-apPOL, DMSO present) and 16 positive controls (Pf-apPOL present, no DMSO). The fluorescence of each well was determined using a BioTek Synergy Neo fluorescence plate reader using excitation and emission wavelengths of 555 and 570 nm, respectively.
# In the above, Min is the average of fluorescence emission of the negative controls (substrate only), Max the average fluorescence emission from the positive controls (enzyme + substrate), and Test the emission from the assays in the presence of compounds (enzyme + compound + substrates). […] […] The IC50 of each compound was determined using Equation (2): (2) IC50= Vmax/(1+ (I/IC50)^n)
# In the above, n measures cooperativity, with n > 1 indicating synergistic binding of more than a single molecule of the compound.
# To identify apPOL inhibitors we utilised our previously developed high-throughput DNA polymerase assay. The HT assay is based on a molecular beacon DNA template that forms a stem-loop with a Cy3 dye and the Black Hole Quencher on the 3′ and 5′ ends of the DNA, respectively. DNA polymerase activity extends an annealed primer through the stem region, displacing the fluorophore from the quencher, thereby increasing its fluorescence (Figure 1(A)). The assay accurately recapitulates the kinetic behaviour of apPOL, as measured through more conventional low-throughput gel-based assays. The Z′ factor for the assay described here was 0.9 across all plates (data not shown).
# Figure 1. High-throughput screening. (A) The fluorescent-based DNA polymerase assay used to screen the compound libraries. The DNA template strand is a hairpin loop with a primer annealed to the loop. The 3’ end of the primer is 11 bases away from the 6 bp duplex. Strand displacement activity of the DNA polymerase separates the Cy3 dye from the Black hole quencher leading to an increase in fluorescent signal. (B) The high-throughput assay workflow. The DNA polymerase is incubated with […] compound for 10 min prior to addition of the hairpin substrate. The reaction is quenched at 3 different time points and the fluorescent signal is measured and % inhibition is determined using the provided equation.
# P. falciparum apicoplast DNA polymerase (Pf-apPOL), sequence (Q8ILY1 entry or part of it): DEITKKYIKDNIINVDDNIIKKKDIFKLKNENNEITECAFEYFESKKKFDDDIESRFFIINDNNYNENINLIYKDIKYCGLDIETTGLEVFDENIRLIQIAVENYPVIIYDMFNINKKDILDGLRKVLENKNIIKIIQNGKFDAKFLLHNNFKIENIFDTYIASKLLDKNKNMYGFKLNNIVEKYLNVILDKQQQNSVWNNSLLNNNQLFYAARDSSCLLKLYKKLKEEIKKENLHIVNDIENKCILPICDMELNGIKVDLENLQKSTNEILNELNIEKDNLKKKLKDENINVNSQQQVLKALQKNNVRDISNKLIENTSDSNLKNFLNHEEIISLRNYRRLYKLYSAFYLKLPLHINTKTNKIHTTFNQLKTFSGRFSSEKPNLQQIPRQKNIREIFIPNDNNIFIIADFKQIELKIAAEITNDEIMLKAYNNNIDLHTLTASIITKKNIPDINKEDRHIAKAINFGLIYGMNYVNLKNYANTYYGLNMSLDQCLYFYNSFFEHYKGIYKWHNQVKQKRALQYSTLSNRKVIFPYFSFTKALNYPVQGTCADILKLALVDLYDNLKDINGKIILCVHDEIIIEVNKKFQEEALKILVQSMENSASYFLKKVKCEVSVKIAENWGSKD
smiles,measurement,setting,value
O=C(O)c1cc([N+](=O)[O-])c(N2CCN(c3cccc(C(F)(F)F)c3)CC2)c([N+](=O)[O-])c1 [KU0076747],% inhibition Apo pol 10',DRC-1; concentration 2.5; 10',9.057%
same,% inhibition Apol 90',DRC-1; concentration 2.5; 90',2.381%
same,% inhibition apPOL 180',DRC-1; concentration 2.5; 180',-1.314%
same,% inhibition Apo pol 10',DRC-1; concentration 5; 10',24.3374%
same,% inhibition Apol 90',DRC-1; concentration 5; 90',17.3572%
same,% inhibition apPOL 180',DRC-1; concentration 5; 180',9.492%
same,% inhibition Apo pol 10',DRC-1; concentration 10; 10',20.6042%
same,% inhibition Apol 90',DRC-1; concentration 10; 90',12.0526%
same,% inhibition apPOL 180',DRC-1; concentration 10; 180',7.5333%
same,% inhibition Apo pol 10',DRC-1; concentration 20; 10',54.2328%
same,% inhibition Apol 90',DRC-1; concentration 20; 90',47.5478%
same,% inhibition apPOL 180',DRC-1; concentration 20; 180',35.8091%
same,% inhibition Apo pol 10',DRC-1; concentration 40; 10',87.2694%
same,% inhibition Apol 90',DRC-1; concentration 40; 90',81.5158%
same,% inhibition apPOL 180',DRC-1; concentration 40; 180',74.4081%
same,% inhibition Apo pol 10',DRC-1; concentration 80 (unit not given); 10',98.3006%
same,% inhibition Apol 90',DRC-1; concentration 80; 90',92.5623%
same,% inhibition apPOL 180',DRC-1; concentration 80; 180',89.3704%
same,% inhibition Apo pol 5',DRC-2; 5'; concentration 10,10%
same,% inhibition Apol 40',DRC-2; 40'; concentration 2.5,10%
same,% inhibition Apol 40',DRC-2; 40'; concentration 40,63%
same,% inhibition Apol 40',DRC-2; 40'; concentration 80,75%
same,% inhibition ApPOL 90',DRC-2; 90'; concentration 2.5,10%
same,% inhibition ApPOL 90',DRC-2; 90'; concentration 40,63%
same,% inhibition apPOL 180',DRC-2; 180'; concentration 80,75%
same,% inhibition Apo pol 5',DRC-2; concentration 2.5; 5',9%
same,% inhibition Apol 40',DRC-2; concentration 2.5; 40',10%
same,% inhibition ApPOL 90',DRC-2; concentration 2.5; 90',10%
same,% inhibition apPOL 180',DRC-2; concentration 2.5; 180',5%
same,% inhibition Apo pol 5',DRC-2; concentration 5; 5',16%
same,% inhibition Apol 40',DRC-2; concentration 5; 40',17%
same,% inhibition ApPOL 90',DRC-2; concentration 5; 90',15%
same,% inhibition apPOL 180',DRC-2; concentration 5; 180',8.45%
same,% inhibition Apo pol 5',DRC-2; concentration 10; 5',10%
same,% inhibition Apol 40',DRC-2; concentration 10; 40',8.56%
same,% inhibition ApPOL 90',DRC-2; concentration 10; 90',8%
same,% inhibition apPOL 180',DRC-2; concentration 10; 180',2.65%
same,% inhibition Apo pol 5',DRC-2; concentration 20; 5',20%
same,% inhibition Apol 40',DRC-2; concentration 20; 40',22%
same,% inhibition ApPOL 90',DRC-2; concentration 20; 90',21%
same,% inhibition apPOL 180',DRC-2; concentration 20; 180',12%
same,% inhibition Apo pol 5',DRC-2; concentration 40; 5',54%
same,% inhibition Apol 40',DRC-2; concentration 40; 40',63%
same,% inhibition ApPOL 90',DRC-2; concentration 40; 90',63%
same,% inhibition apPOL 180',DRC-2; concentration 40; 180',56%
same,% inhibition Apo pol 5',DRC-2; concentration 80; 5',64%
same,% inhibition Apol 40',DRC-2; concentration 80; 40',75%
same,% inhibition ApPOL 90',DRC-2; concentration 80; 90',77%
same,% inhibition apPOL 180',DRC-2; concentration 80; 180',75%
same,DNA Pol,"primary screen value of the 186 hits; unit not given; 90 min, 10 µM",52
same,DNA Pol,"primary screen value; head prints only 'DNA Pol'; 90 min, 10 µM",52
CCSc1nnc(NC(=O)Cc2csc(NC(=O)c3cnccn3)n2)s1 [Molecule 79],IC50,"supplemental file 2, sheet IC50 nontoxic compounds; Pf-apPOL",46.7 µM
COc1ccc(C(=O)Nc2cccc(-c3nc4ncccc4o3)c2)cc1[N+](=O)[O-] [KU0063313],DNA Pol,"186 hits, value of the hit list (primary screen); unit not given; 90 min, 10 µM",31
same,% inhibition Apo pol 10',DRC-1; 10'; concentration 2.5,4.335%
same,% inhibition Apo pol 10',DRC-1; 10'; concentration 5,2.852%
same,% inhibition Apo pol 10',DRC-1; 10'; concentration 10,35.1619%
same,% inhibition Apo pol 10',DRC-1; 10'; concentration 20,59.4699%
same,% inhibition Apo pol 10',DRC-1; 10'; concentration 40,4.461%
same,% inhibition Apo pol 10',DRC-1; 10'; concentration 80,70.0671%
same,% inhibition Apol 90',DRC-1; 90'; concentration 2.5,2.478%
same,% inhibition Apol 90',DRC-1; 90'; concentration 5,4.0361%
same,% inhibition Apol 90',DRC-1; 90'; concentration 10,26.4412%
same,% inhibition Apol 90',DRC-1; 90'; concentration 20,41.4228%
same,% inhibition Apol 90',DRC-1; 90'; concentration 40,2.829%
same,% inhibition Apol 90',DRC-1; 90'; concentration 80,43.7849%
same,% inhibition apPOL 180',DRC-1; 180'; concentration 2.5,-1.663%
same,% inhibition apPOL 180',DRC-1; 180'; concentration 5,2.317%
same,% inhibition apPOL 180',DRC-1; 180'; concentration 10,20.5277%
same,% inhibition apPOL 180',DRC-1; 180'; concentration 20,37.6573%
same,% inhibition apPOL 180',DRC-1; 180'; concentration 40,6.705%
same,% inhibition apPOL 180',DRC-1; 180'; concentration 80,38.9716%
same,% inhibition Apo pol 5',"DRC-2, 5', concentration 2.5",0.145%
same,% inhibition Apo pol 5',"DRC-2, 5', concentration 5",8%
same,% inhibition Apo pol 5',"DRC-2, 5', concentration 10",16%
same,% inhibition Apo pol 5',"DRC-2, 5', concentration 20",4%
same,% inhibition Apo pol 5',"DRC-2, 5', concentration 40",29%
same,% inhibition Apo pol 5',"DRC-2, 5', concentration 80",15%
same,% inhibition Apol 40',"DRC-2, 40', concentration 2.5",0.929%
same,% inhibition Apol 40',"DRC-2, 40', concentration 5",10%
same,% inhibition Apol 40',"DRC-2, 40', concentration 10",18%
same,% inhibition Apol 40',"DRC-2, 40', concentration 20",1.88%
same,% inhibition Apol 40',"DRC-2, 40', concentration 40",61%
same,% inhibition Apol 40',"DRC-2, 40', concentration 80",45%
same,% inhibition ApPOL 90',"DRC-2, 90', concentration 2.5",0.838%
same,% inhibition ApPOL 90',"DRC-2, 90', concentration 5",10%
same,% inhibition ApPOL 90',"DRC-2, 90', concentration 10",15%
same,% inhibition ApPOL 90',"DRC-2, 90', concentration 20",-0.691%
same,% inhibition ApPOL 90',"DRC-2, 90', concentration 40",68%
same,% inhibition ApPOL 90',"DRC-2, 90', concentration 80",58%
same,% inhibition apPOL 180',"DRC-2, 180', concentration 2.5",-5%
same,% inhibition apPOL 180',"DRC-2, 180', concentration 5",2.55%
same,% inhibition apPOL 180',"DRC-2, 180', concentration 10",8%
same,% inhibition apPOL 180',"DRC-2, 180', concentration 20",-8%
same,% inhibition apPOL 180',"DRC-2, 180', concentration 40",73%
same,% inhibition apPOL 180',"DRC-2, 180', concentration 80",62%
same,% inhibition Apo pol 5',DRC-2; 5'; concentration 5,8%
same,% inhibition Apo pol 5',DRC-2; 5'; concentration 80,15%
same,% inhibition Apol 40',DRC-2; 40'; concentration 5,10%
same,% inhibition ApPOL 90',DRC-2; 90'; concentration 5,10%
same,% inhibition ApPOL 90',DRC-2; 90'; concentration 10,15%
same,% inhibition apPOL 180',DRC-2; 180'; concentration 10,8%
same,DNA Pol,"primary screen value, 'DNA Pol' only; 90 min, 10 µM",31
